Results reported in patent publication US8044198B2, “Sirtuin modulating compounds” (Sirtris Pharmaceuticals, Inc., priority 2005, dated 2011).
pEC50, pIC50: −log10 of the molar value. Where two headings read alike, the source gives them in different places.

Assays:
SIRT1 = target: T1, SIRT1 (Homo sapiens, UniProt Q96EB6); experiment: SIRT1 mass spectrometry (MS) based deacetylation assay; format: biochemical
T1 sequence (Q96EB6 1-747): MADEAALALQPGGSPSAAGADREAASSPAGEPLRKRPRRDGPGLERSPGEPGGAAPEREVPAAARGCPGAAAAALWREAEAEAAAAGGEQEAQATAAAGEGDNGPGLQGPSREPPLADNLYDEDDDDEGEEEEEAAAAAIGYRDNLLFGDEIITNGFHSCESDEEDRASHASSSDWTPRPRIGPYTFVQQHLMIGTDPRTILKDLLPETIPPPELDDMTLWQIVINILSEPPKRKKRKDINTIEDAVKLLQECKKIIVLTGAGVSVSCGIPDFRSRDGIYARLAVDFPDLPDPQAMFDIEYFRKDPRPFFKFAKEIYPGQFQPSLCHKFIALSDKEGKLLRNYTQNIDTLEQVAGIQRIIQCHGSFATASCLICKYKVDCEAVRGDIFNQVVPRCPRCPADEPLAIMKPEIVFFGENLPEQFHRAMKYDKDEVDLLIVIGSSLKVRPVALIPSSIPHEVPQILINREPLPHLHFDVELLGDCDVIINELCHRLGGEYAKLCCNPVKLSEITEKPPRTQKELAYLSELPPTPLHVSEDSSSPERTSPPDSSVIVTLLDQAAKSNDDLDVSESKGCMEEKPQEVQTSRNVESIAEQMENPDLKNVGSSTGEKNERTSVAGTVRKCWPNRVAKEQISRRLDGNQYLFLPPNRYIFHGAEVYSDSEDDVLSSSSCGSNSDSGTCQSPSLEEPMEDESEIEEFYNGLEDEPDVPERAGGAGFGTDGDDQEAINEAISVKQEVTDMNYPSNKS

NCI-H358 cells = experiment: Cellular ATP Assay (ATPLite 1Step normalized to AlamarBlue viability); format: cell-based; conditions: for pEC50 / pIC50: Homo sapiens; for pIC50: compounds that lowered intracellular ATP levels
Description: Cellular ATP levels are an indirect measurement of cellular metabolic rates and, by extension, mitochondrial function. […] The ATP assay is combined with a cellular viability assay so that cellular ATP levels can be normalized to viable cells. Cellular ATP levels were measured using the ATPLite 1Step Kit (PerkinElmer) and cellular viability was measured using the cell permeable dye, AlamarBlue™.
The Cellular ATP Assay is a multiplexed assay that measures both ATP levels and viability of a given cell sample. This assay is run in a 96-well Assay Plate and data are reported as the [ATP]/viability for each well in the Assay Plate.
The ATPLite 1 Step™ Kit is a single-step luminescent cell-based assay for detection of ATP. The kit contains lyophilized substrate mixture, comprised of D-luciferin and the firefly (Photinus pyralis) enzyme luciferase. Additionally, the kit contains a detergent-based reconstitution buffer that induces the lysis of cellular membranes. The luciferase in the assay mixture catalyzes a reaction between the free cellular ATP and D-luciferin to produce bioluminescence according to the schematic reaction outlined below. The amount of light produced is proportional to the cellular ATP concentration.
The AlamarBlue™ Assay is a single-step assay that utilizes a soluble, non-toxic, cell permeable dye that is added to cell growth media. This dye undergoes electron reduction in viable cells but not dead cells. The reduced dye product gives a fluorescent signal which can be monitored with a fluorescence plate reader (excitation 545 nm and emission 575 nm). The amount of fluorescence generated in a given well is proportional to the number of viable cells. The viability signal generated by this assay is used to normalize the ATP signal from the ATPLite 1Step™ assay results.
The material was dissolved in 100% vehicle (DMSO) to yield a final concentration of 10 mM (stock solution). The stock solution was serially diluted with 100% DMSO as described in SOP 7.10.
In this assay NCI-H358 cells (obtained from the American Tissue Culture Collection, ATCC) were seeded in 96 well microplates (10^4 cells/well). The NCI-H358 Growth Culture Media consists of RPMI 1640 Media supplemented with 10% FBS, […] streptomycin, and 100 units/mL penicillin. […] After 48 hours of compound treatment under cell growth conditions, plates were removed from incubator, and 15 μl of AlamarBlue™ dye was added to each well. Cell microplates were incubated with dye for 2 hours under growth conditions, and fluorescence was subsequently measured using a plate reader. Media containing AlamarBlue™ was removed, and plates were washed in 100 μl of PBS per well. This wash was removed, and 200 μl of 1×ATPLite 1Step reagent was added to each well. Luminescence was then measured using a plate reader. The ATP signal for each well, measured by the luminescence scan, was normalized to its corresponding cell viability value, measured by the fluorescence scan, to generate the average ATP level per viable cell unit (ATP/vCell). The ATP/vCell for each treatment was then normalized to the average vehicle ATP/vCell for its respective cell microplate, yielding the normalized ATP/vCell (norm. ATP/vCell). Finally, the norm. ATP/vCell for each unique treatment was averaged across plate replicates, generating the average norm. ATP/vCell.
Each of these ATP levels was normalized to the cell viability in the corresponding treatment well, generating the ATP/vCell value. Each ATP/vCell value was subsequently normalized to its average Vehicle ATP/vCell values for its respective cell microplate.
Data are represented as the normalized ATP/vCell (arbitrary units). […] These values represent an average of three plate replicates.
A number of compounds were screened for their affect on ATP levels in the assay as described in Example 5. […] NA means that the compound was not tested using the indicated assay.

[1] = SIRT1 activation, mass spectrometry assay, read-out: ED50 MS ASSAY
[2] = fold activation of SIRT1 as determined by MS
[3] = compounds that raised intracellular ATP levels, read-out: ED50 ATP ASSAY
[4] = SIRT1 fold activation as determined by MS

Row | Compound | pEC50 (SIRT1; [1]) | FOLD ACT. MS (SIRT1; [2]) | pEC50 (NCI-H358 cells; [3]) | other results
1 | COc1cccc(C(=O)Nc2cccc(-c3nc4ncccc4o3)c2)c1C [Compound 49] | 4.30 to 5.30 | B (B (Fold Activation <250%)) | > 4.30 | 
2 | Cc1nc(-c2cccc(NC(=O)c3cccc(N(C)C)c3)c2)cs1 [Compound 79] | < 3.82 |  | > 4.30 | 
3 | O=C(Nc1ccc2c(c1)OCO2)Nc1cc(-c2nc3ccccc3o2)ccn1 [Compound 86, 1-Benzo[1,3]dioxol-5-yl-3-(4-benzoxazol-2-yl-pyridin-2-yl)-urea] |  |  | > 4.30 | pEC50 (SIRT1): < 3.82
4 | CN(C)c1cccc(C(=O)N2CCCN(c3nc4ccccc4o3)CC2)c1 [Compound 89] | < 3.82 |  |  | pIC50 (NCI-H358 cells): > 4.30
5 | O=C(Nc1ccc2c(c1)OCO2)N1CCCN(c2nc3ccccc3o2)CC1 [Compound 90] |  |  | < 3.82 | 
6 | COc1cc(C(=O)N2CCCN(c3nc4ccccc4o3)CC2)cc(OC)c1OC [Compound 91] | < 3.82 |  |  | pIC50 (NCI-H358 cells): > 4.30
7 | Cc1nc(-c2cccc(Nc3nc4ccccc4o3)c2)cs1 [Compound 92] | 4.30 to 5.30 | B (B (Fold Activation <250%)) |  | pIC50 (NCI-H358 cells): 4.00 to 4.29
8 | c1cc(Nc2nc3ccccc3o2)cc(-c2nc3ncccc3o2)c1 [Compound 93] | 4.30 to 5.30 | B (B (Fold Activation <250%)) | < 3.82 | 
9 | CN(C)c1cccc(C(=O)Nc2ccccc2-c2nc3ncccc3o2)c1 [Compound 97] | > 5.30 | B (B (Fold Activation <250%)) | > 4.30 | 
10 | O=C(Nc1cccc(-c2nc3ccncc3s2)c1)Nc1ccc2c(c1)OCO2 [Compound 99] | > 5.30 | A (A (Fold activation >250%)) | > 4.30 | 
11 | COc1ccc(NC(=O)c2cccc(-c3nc4ncccc4o3)c2)c(OC)c1 [Compound 100] | 4.30 to 5.30 | B (B (Fold Activation <250%)) | > 4.30 | 
12 | COc1ccc(NC(=O)c2cccc(-c3nc4ncccc4o3)c2)cc1OC [Compound 101] | 4.30 to 5.30 | A (A (Fold activation >250%)) | 3.82 to 4.00 | 
13 | COc1cc(NC(=O)c2cccc(-c3nc4ncccc4o3)c2)cc(OC)c1OC [Compound 102, 3-(oxazolo[4,5-b]pyridin-2-yl)-N-(3,4,5-trimethoxyphenyl)benzamide] | 4.30 to 5.30 | A (A (Fold activation >250%)) | > 4.30 | 
14 | c1cc(Nc2nc3ccccc3s2)nc(-c2nc3ncccc3o2)c1 [Compound 104] | > 5.30 | B (B (Fold Activation <250%)) | > 4.30 | 
15 | c1cc(Nc2nc3ccccc3o2)nc(-c2nc3ncccc3o2)c1 [Compound 105] | > 5.30 | B (B (Fold Activation <250%)) | > 4.30 | 
16 | COc1cc(C(=O)Nc2ccccc2-c2nc3ncccc3o2)cc(OC)c1OC [Compound 106] | > 5.30 | B (B (Fold Activation <250%)) | > 4.30 | 
17 | COc1cc(C(=O)Nc2cccc(-c3nc4ccncc4s3)c2)cc(OC)c1OC [Compound 115] | 4.30 to 5.30 | A (A (Fold activation >250%)) | < 3.82 | 
18 | COc1ccc(C(=O)Nc2cccc(-c3nc4cc(C)ccc4[nH]3)c2)cc1OC [Compound 117] | 4.30 to 5.30 | A (A (Fold activation >250%)) |  | pIC50 (NCI-H358 cells): 4.00 to 4.29
19 | COc1cccc(OC)c1C(=O)Nc1cccc(-c2nc3ccccc3s2)c1 [Compound 120] |  |  | > 4.30 | 
20 | COc1cc(C(=O)Nc2cccc(-c3nc4cc(Cl)cc(Cl)c4o3)c2)cc(OC)c1OC [Compound 123] |  |  | < 3.82 | 
21 | COc1cc(C(=O)Nc2cc(CO)cc(-c3nc4ccncc4s3)c2)cc(OC)c1OC [Compound 135] | > 5.30 | B (B (Fold Activation <250%)) | > 4.30 | 
22 | COc1cccc(C(=O)Nc2ccccc2-c2cn3c(CN4CCNCC4)csc3n2)c1 [Compound 738] | 4.30 to 5.30 |  |  | FOLD ACT. MS (SIRT1; [4]): A (A (Fold activation >250%))
23 | COc1cc(C(=O)Nc2ccccc2-c2cn3c(C)csc3n2)cc(OC)c1OC [Compound 739] | > 5.30 |  |  | FOLD ACT. MS (SIRT1; [4]): A (A (Fold activation >250%))
24 | Cc1csc2nc(-c3ccccc3NC(=O)c3cccc(N(C)C)c3)cn12 [Compound 740] | > 5.30 |  |  | FOLD ACT. MS (SIRT1; [4]): B (B (Fold Activation <250%))
25 | CN1CCN(Cc2csc3nc(-c4ccccc4NC(=O)c4cnc5ccccc5n4)cn23)C(=O)C1 [Compound 741] | > 5.30 |  |  | FOLD ACT. MS (SIRT1; [4]): A (A (Fold activation >250%))
26 | O=C(Nc1ccccc1-c1cn2c(CN3CCSCC3)csc2n1)c1cnc2ccccc2n1 [Compound 742] | > 5.30 |  |  | FOLD ACT. MS (SIRT1; [4]): B (B (Fold Activation <250%))
27 | COc1cc(F)cc(C(=O)Nc2ccccc2-c2cn3c(CN4CCNCC4)csc3n2)c1 [Compound 743] | 4.30 to 5.30 |  |  | FOLD ACT. MS (SIRT1; [4]): A (A (Fold activation >250%))
28 | O=C(Nc1ccccc1-c1cn2c(CN3CCNCC3)csc2n1)c1cccnc1F [Compound 744] | 4.00 to 4.29 |  |  | FOLD ACT. MS (SIRT1; [4]): A (A (Fold activation >250%))
29 | O=C(Nc1ccccc1-c1cn2c(Cn3ccnc3)csc2n1)c1cnc2ccccc2n1 [Compound 745] | > 5.30 |  |  | FOLD ACT. MS (SIRT1; [4]): A (A (Fold activation >250%))
30 | Oc1ccc(C=Cc2cc(O)cc(O)c2)cc1 [resveratrol, reference compound] |  |  |  | maximum increase in cellular ATP levels (NCI-H358 cells; 48 hours treatment, at 50 μM resveratrol, normalized ATP/vCell): 3.0 fold; pEC50 (NCI-H358 cells; 48 hours, 50% of the maximum increase in normalized ATP/vCell, read-out: EC50 ATP): 4.54
